*1 amine or outer side, *2 acyl side, *3 side chain or, on linkers, in order; H or OH if unused. Where a SMILES comes first, the peptide text is derived from it. Side-chain parts run from the residue outwards. [ ]: non-standard residue; d: D form. The star is where a group is joined. X5 = CCCCCCCCCCCCCCCC(=O)N[C@@H](CCC(=O)NCCCC[C@H](NC(=O)CC[C@H](NC(=O)CC[C@H](NC(=O)CC[C@H](NC(=O)CCC(=O)NCCCOCCOCCOCCCNC(=O)CCC(=O)NCCCOCCOCCOCCCN*)C(=O)O)C(=O)O)C(=O)O)C(N)=O)C(=O)O; Lys(Me3) = C[N+](C)(C)CCCC[C@H](N)C(=O)O; γGlu = O=C(O)[C@H](CCC(=O)[*:2])N[*:1]; Pentadecanoyl = CCCCCCCCCCCCCCC(=O)*; Arg(Me) = CNC(=N)NCCC[C@H](N)C(=O)O; Stearoyl = CCCCCCCCCCCCCCCCCC(=O)*; Palmitoyl = CCCCCCCCCCCCCCCC(=O)*; αMeK = C[C@](N)(CCCCN)C(=O)O; Nle = CCCC[C@H](N)C(=O)O; AEEA = NCCOCCOCC(=O)O; Aib = CC(C)(N)C(=O)O
Molecular target: T1, RXFP1 (Homo sapiens, UniProt Q9HBX9)
T1 construct: OVCAR5 cells expressing endogenous RXFP1; endogenous in cells; host or cells: OVCAR5 cells
T1 sequence (Q9HBX9 1-757): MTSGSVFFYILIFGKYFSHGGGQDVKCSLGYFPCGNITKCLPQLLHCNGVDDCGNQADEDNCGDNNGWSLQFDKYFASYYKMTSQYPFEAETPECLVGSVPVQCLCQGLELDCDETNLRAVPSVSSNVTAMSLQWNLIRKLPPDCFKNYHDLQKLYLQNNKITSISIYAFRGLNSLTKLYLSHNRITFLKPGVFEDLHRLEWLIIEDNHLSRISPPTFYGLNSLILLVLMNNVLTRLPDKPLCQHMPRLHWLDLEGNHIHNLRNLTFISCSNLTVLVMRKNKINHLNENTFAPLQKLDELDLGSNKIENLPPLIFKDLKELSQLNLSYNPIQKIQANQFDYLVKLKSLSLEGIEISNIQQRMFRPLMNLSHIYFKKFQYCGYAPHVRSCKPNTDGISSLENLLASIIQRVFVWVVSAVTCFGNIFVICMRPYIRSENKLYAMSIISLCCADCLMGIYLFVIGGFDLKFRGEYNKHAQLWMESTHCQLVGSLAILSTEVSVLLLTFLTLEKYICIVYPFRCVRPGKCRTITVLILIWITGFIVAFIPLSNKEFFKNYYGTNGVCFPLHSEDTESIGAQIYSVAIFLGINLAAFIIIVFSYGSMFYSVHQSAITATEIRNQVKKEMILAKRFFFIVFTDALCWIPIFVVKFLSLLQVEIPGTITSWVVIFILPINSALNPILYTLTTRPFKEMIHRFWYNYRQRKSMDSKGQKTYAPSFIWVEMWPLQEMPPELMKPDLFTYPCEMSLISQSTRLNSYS
Test: OVCAR5 cAMP assay (HTRF), RXFP1 agonist activity
Assay type: cell-based
Conditions: for EC50: OVCAR5 cells, cAMP HTRF, read-out: EC50 (nM), OVCAR 5 cells (cAMP); for Emax: OVCAR-5, maximal cAMP relative to H2-relaxin maximum (100%), read-out: EMax, OVCAR 5 cells (cAMP)
Outline: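 OVCAR5 cells (endogenous RXFP1) pretreated 40 min at 37° C with 1 mM IBMX, then exposed to peptides in serum-free medium for 30 min at 37° C. Lysate cAMP read by HTRF; EC50 from variable-slope sigmoidal fit; Emax as % of H2-relaxin maximal cAMP in same run.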

| SMILES | EC50 [nM] | Emax [%] |
| --- | --- | --- |
| CCCCCCCCCCCCCCCC(=O)N[C@@H](CCC(=O)NCCCC[C@H](NC(=O)CC[C@H](NC(=O)CC[C@H](NC(=O)CC[C@H](NC(=O)CCC(=O)NCCCOCCOCCOCCCNC(=O)CCC(=O)NCCCOCCOCCOCCCNC(=O)[C@H](CCCCNC(C)=O)NC(=O)[C@H](CCCCN)NC(=O)[C@H](CCCNC(=N)N)NC(=O)[C@](C)(CCCCN)NC(=O)[C@H](CO)NC(=O)[C@H](Cc1ccccc1)NC(=O)[C@@H](NC(=O)[C@H](CO)NC(=O)[C@H](CCCC)NC(=O)CNC(=O)[C@H](CCC(=O)O)NC(=O)C(C)(C)NC(=O)C(C)(C)NC(=O)[C@@H](NC(=O)[C@H](CCCCNC(C)=O)NC(=O)[C@H](C)NC(=O)[C@H](CCCNC(=N)N)NC(=O)[C@@H](NC(=O)[C@H](CCCCN)NC(=O)[C@H](CCC(=O)O)NC(=O)[C@H](CCCNC(=N)N)NC(=O)CNC(=O)[C@H](CCC(=O)O)NC(=O)[C@H](CC(C)C)NC(C)=O)C(C)C)[C@@H](C)CC)[C@@H](C)O)C(=O)O)C(=O)O)C(=O)O)C(N)=O)C(=O)O [compound 146] (Ac-LEGREKVRAK(Ac)I[Aib][Aib]EG[Nle]STFS[αMeK]RKK(Ac)-X5) | 0.02 | 89 |
| CCCCCCCCCCCCCCCC(=O)N[C@@H](CCC(=O)N[C@@H](CCC(=O)N[C@@H](CCC(=O)N[C@@H](CCC(=O)NCCOCCOCC(=O)NCCOCCOCC(=O)NCCOCCOCC(=O)NCCOCCOCC(=O)NCCCC[C@H](NC(=O)[C@H](CCCCNC(C)=O)NC(=O)[C@H](CCCC[N+](C)(C)C)NC(=O)[C@H](CCCNC(=N)NC)NC(=O)[C@](C)(CCCCN)NC(=O)[C@H](CO)NC(=O)[C@H](Cc1c[nH]c2ccccc12)NC(=O)[C@@H](NC(=O)[C@H](CO)NC(=O)[C@H](CCCC)NC(=O)CNC(=O)[C@H](CCC(=O)O)NC(=O)C(C)(C)NC(=O)C(C)(C)NC(=O)[C@@H](NC(=O)[C@H](CCCCNC(C)=O)NC(=O)[C@H](C)NC(=O)[C@H](CCCNC(=N)N)NC(=O)[C@@H](NC(=O)[C@H](CCCCN)NC(=O)[C@H](CCC(=O)O)NC(=O)[C@H](CCCNC(=N)N)NC(=O)CNC(=O)[C@H](CCC(=O)O)NC(=O)[C@H](CC(C)C)NC(C)=O)C(C)C)[C@@H](C)CC)[C@@H](C)O)C(N)=O)C(=O)O)C(=O)O)C(=O)O)C(=O)O [compound 141] (Ac-LEGREKVRAK(Ac)I[Aib][Aib]EG[Nle]STWS[αMeK][Arg(Me)][Lys(Me3)]K(Ac)K([AEEA-AEEA-AEEA-AEEA-γGlu-γGlu-γGlu-γGlu-Palmitoyl])-NH2) | 0.16 | 87 |
| CCCCCCCCCCCCCCCC(=O)N[C@@H](CCC(=O)NCCCC[C@H](NC(=O)CC[C@H](NC(=O)CC[C@H](NC(=O)CC[C@H](NC(=O)COCCOCCNC(=O)COCCOCCNC(=O)COCCOCCNC(=O)COCCOCCNC(=O)[C@H](CCCCN)NC(=O)[C@H](CCCCN)NC(=O)[C@H](CCCCN)NC(=O)[C@H](CCCNC(=N)N)NC(=O)C(C)(C)NC(=O)[C@H](CO)NC(=O)[C@H](Cc1c[nH]c2ccccc12)NC(=O)[C@@H](NC(=O)[C@H](CO)NC(=O)[C@H](CCCC)NC(=O)CNC(=O)[C@H](CCC(=O)O)NC(=O)C(C)(C)NC(=O)C(C)(C)NC(=O)[C@@H](NC(=O)[C@H](CCC(N)=O)NC(=O)[C@H](C)NC(=O)[C@H](CCCNC(=N)N)NC(=O)[C@@H](NC(=O)[C@H](CCCCN)NC(=O)[C@H](CCC(=O)O)NC(=O)[C@H](CCCNC(=N)N)NC(=O)CNC(=O)[C@H](CCC(=O)O)NC(=O)[C@H](CC(C)C)NC(C)=O)C(C)C)[C@@H](C)CC)[C@@H](C)O)C(=O)O)C(=O)O)C(=O)O)C(N)=O)C(=O)O [compound 108] (Ac-LEGREKVRAQI[Aib][Aib]EG[Nle]STWS[Aib]RKKK[AEEA][AEEA][AEEA][AEEA][γGlu][γGlu][γGlu]K([γGlu-Palmitoyl])-NH2) | 0.15 | 94 |

Next, values leading:

| EC50 [nM] | Emax [%] | SMILES |
| --- | --- | --- |
| 0.69 | 79 | CCCCCCCCCCCCCCCCCC(=O)N[C@@H](CCC(=O)N[C@@H](CCC(=O)N[C@@H](CCC(=O)NCCOCCOCC(=O)NCCOCCOCC(=O)NCCOCCOCC(=O)NCCCC[C@H](NC(=O)[C@H](CC(C)C)NC(=O)[C@H](CCCCN)NC(=O)[C@H](CCCNC(=N)N)NC(=O)C(C)(C)NC(=O)[C@H](CO)NC(=O)[C@H](Cc1c[nH]c2ccccc12)NC(=O)[C@@H](NC(=O)[C@H](CO)NC(=O)[C@H](CCCC)NC(=O)CNC(=O)[C@H](CCC(=O)O)NC(=O)C(C)(C)NC(=O)C(C)(C)NC(=O)[C@@H](NC(=O)[C@H](CCCCNC(C)=O)NC(=O)[C@H](C)NC(=O)[C@H](CCCNC(=N)N)NC(=O)[C@@H](NC(=O)[C@H](CCCCN)NC(=O)[C@H](CCC(=O)O)NC(=O)[C@H](CCCNC(=N)N)NC(=O)CNC(=O)[C@H](CCC(=O)O)NC(=O)[C@H](CC(C)C)NC(C)=O)C(C)C)[C@@H](C)CC)[C@@H](C)O)C(N)=O)C(=O)O)C(=O)O)C(=O)O [compound 86] (Ac-LEGREKVRAK(Ac)I[Aib][Aib]EG[Nle]STWS[Aib]RKLK([AEEA-AEEA-AEEA-γGlu-γGlu-γGlu-Stearoyl])-NH2) |
| – | 87 | CCCCCCCCCCCCCCC(=O)N[C@@H](CCC(=O)N[C@@H](CCC(=O)N[C@@H](CCC(=O)NCCOCCOCC(=O)NCCOCCOCC(=O)NCCOCCOCC(=O)NCCCC[C@H](NC(=O)[C@H](CCCCNC(C)=O)NC(=O)[C@H](CCCCN)NC(=O)[C@H](CCCNC(=N)N)NC(=O)C(C)(C)NC(=O)[C@H](CO)NC(=O)[C@H](Cc1c[nH]c2ccccc12)NC(=O)[C@@H](NC(=O)[C@H](CO)NC(=O)[C@H](CCCC)NC(=O)CNC(=O)[C@H](CCC(=O)O)NC(=O)C(C)(C)NC(=O)C(C)(C)NC(=O)[C@@H](NC(=O)[C@H](CCCCNC(C)=O)NC(=O)[C@H](C)NC(=O)[C@H](CCCNC(=N)N)NC(=O)[C@@H](NC(=O)[C@H](CCCCN)NC(=O)[C@H](CCC(=O)O)NC(=O)[C@H](CCCNC(=N)N)NC(=O)CNC(=O)[C@H](CCC(=O)O)NC(=O)[C@H](CC(C)C)NC(C)=O)C(C)C)[C@@H](C)CC)[C@@H](C)O)C(N)=O)C(=O)O)C(=O)O)C(=O)O [compound 163] (Ac-LEGREKVRAK(Ac)I[Aib][Aib]EG[Nle]STWS[Aib]RKK(Ac)K([AEEA-AEEA-AEEA-γGlu-γGlu-γGlu-Pentadecanoyl])-NH2) |
| – | 95 | CCCCCCCCCCCCCCCC(=O)NCCOCCOCC(=O)NCCCC[C@H](NC(=O)[C@H](CCCCN)NC(=O)[C@H](CCCNC(=N)N)NC(=O)C(C)(C)NC(=O)[C@H](CO)NC(=O)[C@H](Cc1c[nH]c2ccccc12)NC(=O)[C@@H](NC(=O)[C@H](CO)NC(=O)[C@H](CCCC)NC(=O)CNC(=O)[C@H](CCC(=O)O)NC(=O)C(C)(C)NC(=O)C(C)(C)NC(=O)[C@@H](NC(=O)[C@H](CCC(N)=O)NC(=O)[C@H](C)NC(=O)[C@H](CCCNC(=N)N)NC(=O)[C@@H](NC(=O)[C@H](CCCCN)NC(=O)[C@H](CCC(=O)O)NC(=O)[C@H](CCCNC(=N)N)NC(=O)CNC(=O)[C@H](CCC(=O)O)NC(=O)[C@H](CC(C)C)NC(C)=O)C(C)C)[C@@H](C)CC)[C@@H](C)O)C(N)=O [compound 50] (Ac-LEGREKVRAQI[Aib][Aib]EG[Nle]STWS[Aib]RKK([AEEA-Palmitoyl])-NH2) |
| 0.17 | 93 | CCCCCCCCCCCCCCCCCC(=O)N[C@@H](CCC(=O)N[C@@H](CCC(=O)N[C@@H](CCC(=O)N[C@@H](CCC(=O)NCCOCCOCC(=O)NCCOCCOCC(=O)NCCOCCOCC(=O)NCCCC[C@H](NC(=O)[C@H](CCCCN)NC(=O)[C@H](CCCCN)NC(=O)[C@H](CCCNC(=N)N)NC(=O)C(C)(C)NC(=O)[C@H](CO)NC(=O)[C@H](Cc1c[nH]c2ccccc12)NC(=O)[C@@H](NC(=O)[C@H](CO)NC(=O)[C@H](CCC(N)=O)NC(=O)CNC(=O)[C@H](CCC(=O)O)NC(=O)C(C)(C)NC(=O)C(C)(C)NC(=O)[C@@H](NC(=O)[C@H](CCCCNC(C)=O)NC(=O)[C@H](C)NC(=O)[C@H](CCCNC(=N)N)NC(=O)[C@@H](NC(=O)[C@H](CCCCN)NC(=O)[C@H](CCC(=O)O)NC(=O)[C@H](CCCNC(=N)N)NC(=O)CNC(=O)[C@H](CCC(=O)O)NC(=O)[C@H](CC(C)C)NC(C)=O)C(C)C)[C@@H](C)CC)[C@@H](C)O)C(N)=O)C(=O)O)C(=O)O)C(=O)O)C(=O)O [compound 115] (Ac-LEGREKVRAK(Ac)I[Aib][Aib]EGQSTWS[Aib]RKKK([AEEA-AEEA-AEEA-γGlu-γGlu-γGlu-γGlu-Stearoyl])-NH2) |

Reference: US10988523B2, “Modified lipidated Relaxin B chain peptides and their therapeutic use” (Sanofi, priority 2018, dated 2021)
